According to patent US12662491B2 (Redona Therapeutics, Inc., priority 2020, dated 2026):
pIC50: −log10 of the molar value.

biological target: T1, Zcchc11 enzyme (Homo sapiens, UniProt Q5TAX3); test: TUTase assay (Zcchc11 assay, Lin28a-dependent polyuridylation of pre-let-7); type: biochemical; conditions: Lin28a-dependent Zcchc11 (Z11) TUTase activity; read-out: Potency Lin28a-dep Z11 IC50
T1 construct: made in house; host or cells: HEK293 cells (Zcchc11); E. coli Rosetta II (LIN28A)
T1 sequence (Q5TAX3 212-1420): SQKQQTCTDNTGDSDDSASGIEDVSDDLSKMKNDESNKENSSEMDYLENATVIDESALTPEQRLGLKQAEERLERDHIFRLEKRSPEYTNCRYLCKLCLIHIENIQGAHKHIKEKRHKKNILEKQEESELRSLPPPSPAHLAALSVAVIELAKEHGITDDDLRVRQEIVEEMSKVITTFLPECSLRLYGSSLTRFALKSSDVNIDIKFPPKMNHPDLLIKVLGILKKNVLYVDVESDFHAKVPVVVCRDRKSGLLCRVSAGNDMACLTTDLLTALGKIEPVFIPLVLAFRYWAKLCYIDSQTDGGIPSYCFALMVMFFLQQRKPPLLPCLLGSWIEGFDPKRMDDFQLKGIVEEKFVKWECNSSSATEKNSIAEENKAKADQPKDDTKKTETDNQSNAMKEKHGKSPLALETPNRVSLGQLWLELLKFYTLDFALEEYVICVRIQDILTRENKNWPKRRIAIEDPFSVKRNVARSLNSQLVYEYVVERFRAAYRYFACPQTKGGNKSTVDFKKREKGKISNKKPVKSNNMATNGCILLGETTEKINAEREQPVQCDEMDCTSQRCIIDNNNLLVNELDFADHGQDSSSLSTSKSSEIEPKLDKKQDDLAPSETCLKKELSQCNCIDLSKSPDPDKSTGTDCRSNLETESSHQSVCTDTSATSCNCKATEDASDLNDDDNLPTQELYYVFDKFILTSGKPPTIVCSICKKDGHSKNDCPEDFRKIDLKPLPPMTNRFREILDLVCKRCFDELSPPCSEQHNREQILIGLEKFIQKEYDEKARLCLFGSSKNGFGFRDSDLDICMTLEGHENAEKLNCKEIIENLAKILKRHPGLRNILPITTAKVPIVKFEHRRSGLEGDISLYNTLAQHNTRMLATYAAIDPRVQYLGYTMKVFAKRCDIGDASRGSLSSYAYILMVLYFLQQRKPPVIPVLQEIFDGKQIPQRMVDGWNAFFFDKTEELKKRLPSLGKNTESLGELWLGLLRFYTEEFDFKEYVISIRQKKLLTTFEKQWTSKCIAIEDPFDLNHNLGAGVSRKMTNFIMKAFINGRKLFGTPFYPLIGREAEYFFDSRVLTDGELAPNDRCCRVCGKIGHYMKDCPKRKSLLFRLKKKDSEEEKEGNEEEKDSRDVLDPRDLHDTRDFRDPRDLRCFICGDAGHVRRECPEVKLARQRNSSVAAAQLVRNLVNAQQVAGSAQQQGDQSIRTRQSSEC
How it was run: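 LIN28A (10 nM) in pH 7.3 HEPES/KCl/MgCl2/DTT buffer was mixed with serially diluted compound, then 0.2 nM truncated human Zcchc11 and 2 nM labeled pre-let-7 were added for 30 min at room temperature. UTP (5 uM) and quench probe (4 nM) then started the reaction. Linear early rates gave IC50 values.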

| SMILES | pIC50 |
| --- | --- |
| CN(C)C1CN(c2ccc(-n3cc(C(=O)O)c(=O)c4cc(Cl)c(N5C(COc6ncccc6Cl)CCS5(=O)=O)cc43)cn2)C1 (stereo not drawn) [Compound 311, 6-chloro-7-(3-(((3-chloropyridin-2-yl)oxy)methyl)-1,1-dioxidoiso-thiazolidin-2-yl)-1-(6-(3-(dimethyl-amino)azetidin-1-yl)pyridin-3-yl)-4-oxo-1,4-dihydro-quinoline-3-carboxylic acid] | ≥ 6.00 |
| Nc1ccc(-n2cc(C(=O)O)c(=O)c3cc(F)c(N4CCC[C@@H]4COc4ncccc4F)cc32)cn1 [Compound 316, 1-(6-Aminopyridin-3-yl)-6-fluoro-7-[(2R)-2-[[(3-fluoropyridin-2-yl)oxy]methyl]pyrrolidin-1-yl]-4-oxoquinoline-3-carboxylic acid] | ≥ 6.00 |
| Nc1ccc(-n2cc(C(=O)O)c(=O)c3cc(F)c(N4CCC[C@@H]4COc4ncccc4Cl)cc32)cn1 [Compound 317, 1-(6-Aminopyridin-3-yl)-7-[(2R)-2-[[(3-chloropyridin-2-yl)oxy]methyl]pyrrolidin-1-yl]-6-fluoro-4-oxoquinoline-3-carboxylic acid] | ≥ 6.00 |
| CN(C)C1CN(c2ccc(-n3cc(C(=O)O)c(=O)c4cc(Cl)c(N5CCC[C@@H]5COc5ncccc5Cl)cc43)cn2)C1 [Compound 318, 6-Chloro-7-[(2R)-2-[[(3-chloropyridin-2-yl)oxy]methyl]pyrrolidin-1-yl]-1-[6-[3-(dimethyl-amino)azetidin-1-yl]pyridin-3-yl]-4-oxoquinoline-3-carboxylic acid] | ≥ 6.00 |
| O=C(O)c1cn(-c2cnn(C3CN(CC(F)F)C3)c2)c2cc(N3CCC[C@@H]3COc3ncccc3Cl)c(Cl)cc2c1=O [Compound 319, 6-Chloro-7-[(2R)-2-[[(3-chloropyridin-2-yl)oxy]methyl]pyrrolidin-1-yl]-1-[1-[1-(2,2-difluoroethyl)azetidin-3-yl]pyrazol-4-yl]-4-oxoquinoline-3-carboxylic acid] | ≥ 6.00 |
| CN(C)C1CN(c2ccc(-n3cc(C(=O)O)c(=O)c4cc(Cl)c(N5CCC[C@@H]5COc5cnccc5Cl)cc43)cn2)C1 [Compound 320, 6-Chloro-7-[(2R)-2-[[(4 chloropyridin-3-yl)oxy]methyl]pyrrolidin-1-yl]-1-[6-[3-(dimethyl-amino)azetidin-1-yl]pyridin-3-yl]-4-oxoquinoline-3-carboxylic acid] | ≥ 6.00 |
| CN(C)C1CN(c2ccc(-n3cc(C(=O)O)c(=O)c4ccc(N5C(=O)CCCC5COc5ccccn5)cc43)cn2)C1 (stereo not drawn) [Compound 323, 1-[6-[3-(Dimethyl-amino)azetidin-1-yl]pyridin-3-yl]-4-oxo-7-[2-oxo-6-[(pyridin-2-yloxy)methyl]piperidin-1-yl]quinoline-3-carboxylic acid] | < 4.30 |
| CN(C)C1CN(c2ccc(-n3cc(C(=O)O)c(=O)c4cc(Cl)c(N5C(=O)CCCC5COc5ccccn5)cc43)cn2)C1 (stereo not drawn) [Compound 324, 6-Chloro-1-[6-[3-(dimethyl-amino)azetidin-1-yl]pyridin-3-yl]-4-oxo-7-[2-oxo-6-[(pyridin-2-yloxy)methyl]piperidin-1-yl]quinoline-3-carboxylic acid] | 4.30 to 5.00 |
| CN(C)C1CN(c2ccc(-n3cc(C(=O)O)c(=O)c4cc(F)c(N5CC(c6cccnc6)C[C@@H]5COc5ncccc5Cl)cc43)cn2)C1 (stereo partly drawn) [Compound 325, 7-[(2R)-2-[[(3-Chloropyridin-2-yl)oxy]methyl]-4-(pyridin-3-yl)pyrrolidin-1-yl]-1-[6-[3-(dimethyl-amino)azetidin-1-yl]pyridin-3-yl]-6-fluoro-4-oxoquinoline-3-carboxylic acid] | ≥ 6.00 |
| COCCN(C)C1CN(c2ccc(-n3cc(C(=O)O)c(=O)c4cc(F)c(N5CC(c6cccnc6)C[C@@H]5COc5ncccc5Cl)cc43)cn2)C1 (stereo partly drawn) [Compound 326, 7-[(2R)-2-[[(3-Chloropyridin-2-yl)oxy]methyl]-4-(pyridin-3-yl)pyrrolidin-1-yl]-6-fluoro-1-(6-[3-[(2-methoxyethyl) (methyl)amino]azetidin-1-yl]pyridin-3-yl)-4-oxoquinoline-3-carboxylic acid] | ≥ 6.00 |

The next lines start with the values.

| pIC50 | SMILES |
| --- | --- |
| ≥ 6.00 | O=C(O)c1cn2c3cc(c(Cl)cc3c1=O)N1CCC[C@@H]1COc1nc(ccc1Cl)OCCCNc1ccc-2cn1 [Compound 300, (R)-26,63-dichloro-24-oxo-21,24-dihydro-5,7-dioxa-11-aza-2(1,7)-quinolina-1(5,2),6(2, 6)-dipyridina-3(1,2)-pyrrolidina cyclo-undecaphane-23-carboxylic acid] |
| ≥ 6.00 | CN(C)C1CN(c2ccc(-n3cc(C(=O)O)c(=O)c4cc(Cl)c(N5CC(F)(F)C[C@@H]5COc5ncccc5Cl)nc43)cn2)C1 [Compound 301, (R)-6-chloro-7-(2-(((3-chloropyridin-2-yl)oxy)methyl)-4,4-difluoro-pyrrolidin-1-yl)-1-(6-(3-(dimethyl-amino)azetidin-1-yl)pyridin-3-yl)-4-oxo-1,4-dihydro-1,8-naphthyridine-3-carboxylic acid] |
| ≥ 6.00 | COCCN(C)C1CN(c2ccc(-n3cc(C(=O)O)c(=O)c4cc(F)c(N5CCC[C@@H]5COc5nc(OC)ccc5Cl)cc43)cn2)C1 [Compound 302, (R)-7-(2-(((3-chloro-6-methoxy-pyridin-2-yl)oxy)methyl)pyrrolidin-1-yl)-6-fluoro-1-(6-(3-((2-methoxyethyl) (methyl)amino)azetidin-1-yl)pyridin-3-yl)-4-oxo-1,4-dihydro-quinoline-3-carboxylic acid] |
| ≥ 6.00 | CN(C)C1CN(c2ncc(-n3cc(C(=O)O)c(=O)c4cc(Cl)c(N5CC(c6cccnc6)C[C@@H]5COc5ncccc5Cl)cc43)cn2)C1 (stereo partly drawn) [Compound 303, 6-chloro-7-((2R)-2-(((3-chloropyridin-2-yl)oxy)methyl)-4-(pyridin-3-yl)pyrrolidin-1-yl)-1-(2-(3-(dimethyl-amino)azetidin-1-yl)pyrimidin-5-yl)-4-oxo-1,4-dihydro-quinoline-3-carboxylic acid] |
| ≥ 6.00 | CN(C)C1CN(c2ccc(-n3cc(C(=O)O)c(=O)c4cc(Cl)c(N5CC(c6cn[nH]c6)C[C@@H]5COc5ncccc5Cl)cc43)cn2)C1 (stereo partly drawn) [Compound 304, 6-chloro-7-((2R)-2-(((3-chloropyridin-2-yl)oxy)methyl)-4-(1H-pyrazol-4-yl)pyrrolidin-1-yl)-1-(6-(3-(dimethyl-amino)azetidin-1-yl)pyridin-3-yl)-4-oxo-1,4-dihydro-quinoline-3-carboxylic acid] |
| ≥ 6.00 | CC1CCN(c2cc3c(cc2Cl)c(=O)c(C(=O)O)cn3-c2ccc(N3CC(N(C)C)C3)nc2)C1COc1ncccc1Cl (stereo not drawn) [Compound 306, 6-chloro-7-(2-(((3-chloropyridin-2-yl)oxy)methyl)-3-methyl-pyrrolidin-1-yl)-1-(6-(3-(dimethyl-amino)azetidin-1-yl)pyridin-3-yl)-4-oxo-1,4-dihydro-quinoline-3-carboxylic acid] |
| ≥ 6.00 | Cc1ccc(Cl)c(OC[C@H]2C[C@H]3C[C@H]3N2c2cc3c(cc2Cl)c(=O)c(C(=O)O)cn3-c2ccc(N(C)C)nc2)n1 [Compound 308, 6-chloro-7-[(1R,3R,5R)-3-{[(3-chloro-6-methylpyridin-2-yl)oxy]methyl}-2-azabicyclo [3.1.0]hexan-2-yl]-1-[6-(dimethyl-amino)pyridin-3-yl]-4-oxoquinoline-3-carboxylic acid] |
| ≥ 6.00 | Cc1ccc(Cl)c(OC[C@H]2C[C@H]3C[C@H]3N2c2cc3c(cc2F)c(=O)c(C(=O)O)cn3-c2ccc(N(C)C)nc2)n1 [Compound 309] |
